From US20190142835A1, “INHIBITION OF AUTOPHAGY USING PHOSPHOLIPASE A2 INHIBITORS” (OREGON HEALTH & SCIENCE UNIVERSITY, priority 2017, published 2019)

Key:
ACHN cells [1] = experiment: Redox homeostasis (p-AMPK, NADPH, GSSG/GSH, ROS); type: cell-based, human; conditions: 2 μM CYT387, 10 μM MK2206, 24 hr
Protocol: ROS levels were measured with Cellrox Deep Red (Molecular Probes). Cell were plated in a 96 well clear bottom with black sides cell culture plate. […] The complete media+drug was removed after 24 hours and replaced with 5 μM of Cellrox Deep Red in media. Cells were incubated for 30 min at 370 C then washed with PBS. Fluorescence signal was detected using a Bioteck Cytation 5 plate reader. Data was analyzed using Prism software.

[2] = tested on: Atg5+/+ murine embryonic fibroblasts; experiment: Lipid droplet number in Atg5+/+ MEFs; type: cell-based, mouse; conditions: 24 hr
Protocol: (§1) Cells were grown on coverslips then treated with drug for 24 hours. Cells were fixed in 4% paraformaldehyde for 15 min, rinsed with PBS. Cells were washed with a 1% saponin solution for 15 min at room temperature then washed several times in PBS to remove detergent. Cells were then incubated in Bodipy (ThermoFisher #D3922) at a final concentration of 1 uM for 10 min. Bodipy was removed and slides were rinsed with PBS then air dried and mounted on slides using Dako mounting media with Dapi.

[3] = tested on: patient-derived RCC organotypic cultures; experiment: Patient tumor ex vivo organotypic culture; type: cell-based, human; conditions: 24 hours
Protocol: Tumor tissue samples were collected at the time of surgical removal for consented patients and transported in IMEM+FBS+PS. Tissue was sliced into thin sections using a surgical knife. Sections were cultured on an organotypic insert (EMD#PICMORG50) for 24 hours in IMEM+10% FBS+1% PS+50 ug/ml holo-transferrin with drug. A section of each tumor was immediately fixed in 10% buffered formalin to confirm tissue viability. After culture, treated tissue sections were fixed in 10% buffered formalin and embedded in paraffin. Paraffin embedded tumors were evaluated for morphology (H&E) and immunofluorescent signaling.
H&E slides of formalin fixed, paraffin embedded tissue was used to assess morphological integrity of tumor samples. Once integrity was confirmed, immunofluorescent analysis was performed for p-S6 (1:500 CST), p-AKT (1:200 CST) and LC3B (1:250 CST). Four micron sections were cut, de-paraffinized and rehydrated. Antigen retrieval was performed using citrate for 4 min in a pressure cooker. Slides were blocked using 2.5% normal goat serum for 30 min then incubated in primary antibody for 1 hr followed by secondary antibody mouse anti-rabbit alexa 488 (1:1000) for 30 min. Slides were rinsed in PBS, air dried, and coverslipped using Dako mounting media with Dapi.

[4] = tested on: Atg5 deficient cells (Atg5−/−); experiment: Autophagy induction in Atg5 deficient MEFs; type: cell-based, mouse
[5] = tested on: human RCC and MPN cell lines; experiment: Growth effect of treatment in RCC and MPN cell lines; type: cell-based; conditions: multiple human RCC and MPN cell lines
ACHN cells [6] = experiment: Transcriptomic analysis with gene set enrichment (GSEA); type: cell-based, human
SN12C cells = experiment: Apoptosis (Caspase 3/7-Glo), SN12C; type: cell-based, human; conditions: 72 h
Protocol: Apoptosis was determined using Caspase 3/7-Glo assay kit (Promega) following the manufacturer's instructions. Briefly, 2000 cells per well were plated in 96 well plates and cultured for 72 h. […] Caspase 3/7 activity was measured using a luminometer. Luminescence values were normalized by cell numbers.

ACHN cells [7] = experiment: Lipid droplet staining (Bodipy 493/503), ACHN; type: cell-based, human; conditions: 24 hrs; p<0.001 vs control
Protocol: as §1

ACHN cells [8] = experiment: Autophagy flux validation (immunofluorescence, immunoblot, mCherry-EGFP-LC3 reporter, MDC, TEM); type: cell-based, human
Excerpt: Next, we stably expressed a mChery-EGFP-LC3 reported in ACHN cells. This reporter for autophagic flux takes advantage of the fact that EGFP fluorescence is quenched in the acidic environment of the autolysosome relative to mCherry. […] This method to measure flux has been extensively validated and accurately quantitates autophagic flux induction by multiple stimuli and chemical and genetic inhibition of autophagy. […] LC3-I is normally converted into LC3-II (LC3-I covalently bound to phosphatidylethanolamine) during autophagosome formation but is converted back to LC3-I by protease cleavage during autophagosome maturation.
(§2) Cells were plated in 6 well dishes and treated the following day with the indicated agents. Treatments were for 24 hours, after which cells were washed with ice cold PBS and lysed with RIPA buffer (Sigma). Phosphatase inhibitor cocktail set II and protease inhibitor cocktail set III (EMD Millipore) were added at the time of lysis. Lysates were centrifuged at 15,000 g×10 min at 4 degrees C. Protein concentrations were calculated based on a BCA assay (Thermo Scientific) generated standard curve. Proteins were resolved using the NuPAGE Novex Mini Gel system on 4% to 12% Bis-Tris Gels (Invitrogen). For western blotting, equal amounts of cell lysates (15-20 μg of protein) were resolved with SDSPAGE, and transferred to membranes. The membrane was probed with primary antibodies, washed, and then incubated with corresponding fluorescent secondary antibodies and washed. The fluorescent signal was captured using LI-COR (Lincoln, Nebr.) Odyssey Imaging System, and fluorescent intensity was quantified using the Odyssey software where indicated. The following antibodies were used for Western blots: p-S6 (S240/244), S6, LC3B, p-Akt(S473), p-Akt(T308), Akt, cleaved caspase3 (Cell Signaling Technologies). p-Stat3 (Y705), Stat3 and β-actin (AC15) (Abcam). Ki67 (Dako) and cleaved caspase3 (Cell Signaling Technologies) were used for immunohistochemistry. […] BX795 and GDC0941 were purchased from Sigma.
Slides were plated on coverslips and allowed to adhere for 24 hours. After adherence, cells were treated with drug for 24 hours. After treatment, drug was removed and cells were washed once in PBS. Cells were labeled with a […] concentration of autofluorescent marker monodansylcadaverine (MDC) in PBS for 10 min at 37 C. Cells were fixed in 4% formaldehyde for 15 min at room temperature. Cells were washed in PBS 2×5 min, and mounted on slides using Dako mounting media with dapi. Coverslips were sealed with clear nail polish and imaged with 3DHistech MIDI Scanner as described above.

[9] = tested on: Atg5−/− murine embryonic fibroblasts; experiment: Lipid droplet number in Atg5−/− MEFs; type: cell-based, mouse; conditions: ATG5 deficient, 24 hr
Protocol: as §1

[10] = tested on: mouse embryo fibroblasts (MEFs) Atg5+/+; experiment: Autophagy induction (lipidation of LC3) in Atg5+/+ MEFs; type: cell-based
[11] = tested on: human RCC and MPN cell lines; experiment: Suppression of JAK and STAT3 phosphorylation; type: cell-based; conditions: multiple human RCC and MPN cell lines
Protocol: as §2

[12] = transmission electron microscopy

Structure (SMILES): N#CCNC(=O)c1ccc(-c2ccnc(Nc3ccc(N4CCOCC4)cc3)n2)cc1 [CYT387]
- NADPH levels (ACHN cells [1]): increases NADPH levels
- ROS (ACHN cells [1]): mitigates ROS
- p-AMPK (ACHN cells [1]): activates p-AMPK
- LD numbers [2]: significantly increase LD numbers
- LCB expression and phosphorylated S6 levels [3]: significantly induced LCB expression while simultaneously reducing phosphorylated S6 levels
- autophagy induction [4]: did not induce autophagy
- effect of treatment on cell growth [5]: primarily cytostatic
- expression of genes involved in glycolysis such as PFKB3 and HK2 (ACHN cells [6]): downregulated genes involved in glycolysis
- apoptosis (cleaved-caspase 3/7) (SN12C cells): little or no effect on apoptosis
- number of lipid droplets (ACHN cells [7]): increase in the number of lipid droplets
- size of lipid droplets (ACHN cells [7]): increase in the size of lipid droplets
- p62 protein expression and phosphorylated-S6 levels by immunofluorescence staining (ACHN cells [8]; cells on coverslips): decreased p62 protein expression and phosphorylated-S6 levels
- phosphorylation of Y705-STAT3 (ACHN cells [8]; immunoblot): decrease in phosphorylation of Y705-STAT3
- LC3-II levels (ACHN cells [8]; immunoblot, more pronounced with E64D/pepstatin): increased LC3-II levels
- MDC autoflorescence (ACHN cells [8]; monodansylcadaverine staining): increased MDC autoflorescence
- time to reduction in LC3B lipidation after removal of drug (ACHN cells [8]; reversal of autophagy): ≤ 24 h
- mChery-EGFP-LC3 reporter of autophagic flux (ACHN cells [8]; stably expressed reporter): decreased expression of green-yellow cells and increased expression of red cells
- number of double-membraned autophagosomes (ACHN cells [8]; [12]): increased the number of double-membraned autophagosomes
- number of mitochondria and lipid droplets (ACHN cells [8]; [12]): increased number of mitochondria and lipid droplets
- lipid droplets [9]: no increase in lipid droplets
- autophagy as seen by the lipidation of LC3 [10]: induce autophagy in a dose dependent manner
- phosphorylation of JAK and STAT3 [11]: effective in suppressing the phosphorylation of JAK and STAT3
